Consider four compounds from publication PMC12948223, “HSP70 Interactome‐Mediated Proteolysis Targeting Chimera (HSP70‐PROTAC) for Ferroptosis‐Driven Cancer Treatment” (Advanced Science, 2025).

The target of one data set is Hsp70. Also noted: method as in PMID 18729127. The settings on record: cited from earlier work.
The next data set relates to HT1080 xenograft tumor. Put plainly: HT1080 xenograft tumor mouse model, antitumor efficacy and safety. It is filed as in vivo. The settings on record: 30 mg/kg IP once daily. Here is the method: Motivated by the aforementioned in vitro findings, we subsequently sought to evaluate the in vivo antitumor efficacy of GDAz‐3 using an HT1080 xenograft tumor mouse model. The tumor‐bearing mice were randomly divided into six groups, minimizing weight and tumor size differences among the groups (n = 6 in each group). The treatment group mice were administered once daily by intraperitoneal injection (IP) with GDAz‐3 at a dosage of 30 or 60 mg kg^−1, while the control group animals were treated with the corresponding solvent, ML162, and apoptozole at a dosage of 30 mg kg^−1. Additionally, we set up a drug combination group to confirm the superiority of GDAz‐3. After treatment for 17 days, animals were humanely euthanized and the tumors were excised (Figure 7B). […] The advantage of the safety of GDAz‐3 was also determined by the hematoxylin and eosin (H&E) staining. […] In general, compared with the single inhibitor or their combination, the in vivo antitumor study confirmed the efficacy and safety of GDAz‐3.
The experimental procedures of the animal experiments were permitted by the Hangzhou Institute of Medicine (HIM), Chinese Academy of Sciences (AP2024‐07‐0010). Male BALB/c nude mice (6 weeks old) were housed under pathogen‐free conditions, maintained at a constant room temperature, and fed standard rodent chow and water. An HT1080 fibrosarcoma xenograft model in nude mice was established through subcutaneous transplantation. When the tumors emerged, the mice were randomly divided into six groups with six mice in each group: GDAz‐3‐treated at 30 or 60 mg kg^−1 group and control groups, including the vehicle group, and each of the two inhibitor‐treated groups (ML162 and apoptozole) at 30 mg kg^−1, and their combinations. The mice were intraperitoneally (IP) injected daily according to their body weight. Body weight and tumor size were measured every other day, and the tumor volume and body weight were recorded every other day after drug treatment. After treatment, the animals were euthanized by cervical dislocation, and the tumor bulks were peeled off and weighed. The organ tissues (tumor, heart, liver, spleen, lung, and kidney) were harvested and fixed with 4% paraformaldehyde for hematoxylin‐eosin (H&E) and immunohistochemistry (IHC) staining. In addition, the expression of GPX4 in tumor samples was analyzed in vehicle‐ and GDAz‐3‐treated groups by western blot assay.

Data set [1] relates to HT1080 cells. Nature of the data set: Cell viability CCK-8 assay. It is filed as cell-based, human. The settings on record: CCK-8, 48 h, read-out: IC50 (cytotoxicity). The method, then:
To determine whether GPX4 degradation following treatment with HSP70‐PROTACs triggers cancer cell ferroptosis, we initially assessed the viability of HT1080 cells using the CCK‐8 assay after treatment with various concentrations of the tested compounds for 48 h. GPX4 inhibitor ML162, HSP70 inhibitor apoptozole, and two GPX4 non‐degradable HSP70‐PROTAC molecules, GDAz‐Neg1 and GDAz‐Neg2, were selected as controls. […] This remarkable activity might partly be ascribed to the high cell permeability conferred by the piperazine ring. […] We speculated that the potent anti‐proliferative activity of GDAz‐Neg2 may be attributed to the GPX4 inhibition.
The compounds under investigation were initially dissolved in dimethyl sulfoxide (DMSO) to generate stock solutions with a concentration of 10 mM. HT1080 cells or other tested cells were seeded in 96‐well plates at a density of 3000–5000 cells well^−1 and cultured at 37 °C. Following a 24‐h incubation period, the tested compounds were added to the wells at various concentrations (the DMSO stock solutions of all the tested compounds were diluted with culture medium to obtain the designated concentration containing a final concentration of DMSO less than 0.5% (v/v)). The cells were then cultured for an additional 48 or 72 h. Cell Counting Kit 8 (CCK‐8) assay was conducted to examine the effects of the tested compounds on cell viability, and the absorbance was measured at a wavelength of 450 nm. The IC50 values were determined utilizing GraphPad Prism software through nonlinear regression analysis. All experiments were independently repeated at least three times.
On the technique in general: Formazan colour is commonly taken as a measure of viable cells.

Data set [2] concerns the target T1, GPX4 (Homo sapiens, UniProt P36969).
T1 sequence (P36969 1-170 isoform P36969-2): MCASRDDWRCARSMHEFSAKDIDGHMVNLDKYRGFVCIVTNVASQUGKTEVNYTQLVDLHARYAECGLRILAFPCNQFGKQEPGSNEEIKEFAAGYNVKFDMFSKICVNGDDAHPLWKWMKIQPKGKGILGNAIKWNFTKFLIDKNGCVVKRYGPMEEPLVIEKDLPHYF
Nature of the data set: GPX4 degradation by western blot in HT1080 cells. In kind it is cell-based. Also noted: determine the changes in the endogenous levels of GPX4 by western blot assay; endogenous in cells; host or cells: HT1080 fibrosarcoma cells, including siRNA-knockdown derivatives. The following applies: HT1080 cells, 0.3 µM, 24 h (Figure 3A). Here is the method:
To evaluate the GPX4 degradation efficiency of the synthesized HSP70‐PROTACs GDAz‐1–14, we first selected ferroptosis‐sensitive HT1080 fibrosarcoma cells (highly‐expressing GPX4) treated with different concentrations (0.1, 0.3, 1, and 3 µM) of these chimeras to determine the changes in the endogenous levels of GPX4 by western blot assay after 24 h treatment. […] This finding underscores the crucial role of the linker in HSP70‐PROTAC‐mediated protein degradation. […] In the case of alkyl chain derivatives (GDAz‐6–10), elongating the length of the linker generally led to a decreased GPX4 degrading activity. […] Thus, GDAz‐3 was selected for further evaluation.
(§1) Cells were seeded at a density of 4 × 10^5 cells well^−1 in 6‐well plates and allowed to incubate overnight. Cells were incubated with the indicated treatments. Thereafter, the cells were collected and lysed with RIPA buffer containing serine protease and phosphatase inhibitors for 30 min on ice. Proteins were quantified by using a BCA protein assay kit (Beyotime). Subsequently, SDS‐PAGE sample loading buffer was added, and the mixture was heated in a 100 °C metal bath for 10 min to denature the proteins. Protein samples from each group were separated by SDS‐PAGE gel and transferred to a PVDF membrane. After blocking with 5% skim milk for 1 h at room temperature, primary antibodies (GPX4: abcam (#ab125066, 1:1000); Hsp70: abcam (#ab2787, 1:1000); CHIP: HUABIO (#ST7108, 1:1000); UpingBio Technology Co., Ltd. (BRD4, #YP‐Ab‐18034, 1:1000; BAG‐1, #YP‐Ab‐00575, 1:1000); GAPDH: Proteintech (#60004‐1‐Ig, 1:50 000)) were used and incubated at 4 °C overnight on a rotary shaker. After washing the membranes with TBST buffer five times, the membranes were incubated with a second antibody (Cell Signaling Technology, #7074S, 1:1000 and #7076S, 1:1000) at room temperature for 2 h. Ultimately, the membrane was washed five times, and the antibody‐protein complexes were visualized using an ECL luminescence reagent (Biosharp, Shanghai, China). The relative intensities of the bands were analyzed by ImageJ and normalized to a loading control.
In general terms: Immunoblotting shows a protein as a band on a membrane.

In a further data set the target is Hsc70. The arrangement: method as in PMID 18729127. The following applies: cited from earlier work.
The next data set has as its system ferroptosis. Also noted: method as in PMID 34506134, PMID 35648631. The settings on record: cited from earlier work.
A further data set has as its target T2, BRD4 (Homo sapiens, UniProt O60885).
T2 construct: effectively degrading additional endogenous bromodomain‐containing protein 4 (BRD4) in cancer cells; endogenous in cells; host or cells: MOLT-4
Put plainly: BRD4 degradation by western blot in MOLT-4 cells. In kind it is cell-based. The settings on record: 48 h.
Description: To expand beyond the GPX4 degradation, we next sought to investigate the potential of the HSP70 complex to facilitate the degradation of additional proteins. We selected oncoprotein bromodomain containing 4 (BRD4), a degradable protein that not only has been widely used as a model substrate for development of new technologies in the TPD field, but also serves as a validated therapeutic target for multiple cancers. We synthesized three heterobifunctional compounds (GDAz‐15–17) by conjugating the HSP70 binding moiety apoptozole to the well‐established BRD4 inhibitor (+)‐JQ‐1 (a potent, specific, and reversible BRD4 inhibitor extensively applied in TPD) via PEG linkers of varying lengths (Figure 8E; Scheme S6, Supporting Information). T lymphoblast MOLT‐4 cell line with BRD4 overexpression was selected for biological evaluation.
as §1, with “After washing the membranes with TBST buffer five times, the membranes were incubated with a second antibody (Cell Signaling Technology, #7074S, 1:1000 and #7076S, 1:1000) at room temperature for 2 h.” left out

Data set [3] relates to HT1080 cells. The arrangement: method as in PMID 39230973. The settings on record: same experimental conditions, cited from earlier work.
For data set [4], the target named is T1, GPX4. Also noted: determine the changes in the endogenous levels of GPX4 by western blot assay; endogenous in cells; host or cells: HT1080 fibrosarcoma cells, including siRNA-knockdown derivatives; method as in PMID 39230973. The settings on record: cited from earlier work.
Data set [5] addresses T1, GPX4. Put plainly: GPX4 degradation by western blot in 786-O cells. In kind it is cell-based. The arrangement: endogenous in cells; host or cells: 786-O. The settings on record: up to 10 µM, 24 h; sentence reads 'neither ... nor ... induced any degradation effect' = no degradation.
Description: As previously mentioned, drug resistance and limited application scope are the significant challenges of traditional PROTAC, due partly to CRBN/VHL mutations or low expression. In this study, we investigated whether the developed HSP70‐PROTAC could address these challenges. Specifically, we examined the developed HSP70‐PROTAC in scenarios where VHL‐ or CRBN‐based PROTACs are ineffective due to intrinsic or acquired resistance. Several previously reported representative GPX4‐targeting degraders, including dGPX4 (CRBN‐based PROTAC, Figure 1A), 8e (VHL‐based PROTAC, Figure 1B), and GDCNF‐11/2 (HSP90‐based HIM‐PROTAC, Figure 1C, the structure of the GDCNF‐11 derivative GDCNF‐2 was not shown) were selected as control agents.^[ [18], [23], [28] ^] […] The clear cell renal cell carcinoma (ccRCC) 786‐O cell line is a well‐established cancer cell model characterized by an intrinsic deficiency in VHL expression.^[ [43], [44], [45] ^] We also confirmed this characteristic through evaluating the VHL expression levels in several randomly selected cancer cell lines (Figure S10A, Supporting Information). We further selected 786‐O cells as a model to confirm whether HSP70‐PROTAC could be used in such cases as an alternative to VHL‐based degraders, because VHL‐based PROTACs cannot be used to treat kidney cancer with a mutation or deletion in the VHL gene.
as §1

Where two headings read alike, the source gives them in different places.

A word on the Kd: it is the equilibrium constant for the complex coming apart. As a reminder, the IC50 is the concentration that gives 50% inhibition. As to `COc1ccc(-c2nc(-c3cc(C(F)(F)F)cc(C(F)(F)F)c3)n(Cc3ccc(C(N)=O)cc3)c2-c2ccc(OC)cc2)cc1` [Apoptozole, reference compound], the equilibrium dissociation constant (Kd) at Hsp70 was 140 nM; on Hsc70, 210 nM. In the data set with HT1080 xenograft tumor, the “Toxic effects during treatment” value is listed as “serious toxic effects such as death”. For the same compound, the IC50 in the data set with HT1080 cells [1] stood at 17000 nM. The GPX4 degradation result at GPX4 [2] is recorded as “this degradation effect was not observed”.
For `COC(=O)c1ccc([C@@H]2c3[nH]c4ccccc4c3C[C@@H](C(=O)OC)N2C(=O)CCl)cc1` [RSL3], in the data set on ferroptosis, the “Ferroptosis selectivity (SI)” value was 3.1.
Turning to `COc1ccc(-c2nc(-c3cc(C(F)(F)F)cc(C(F)(F)F)c3)n(Cc3ccc(C(=O)NCCOCCOCCNC(=O)C[C@@H]4N=C(c5ccc(Cl)cc5)c5c(sc(C)c5C)-n5c(C)nnc54)cc3)c2-c2ccc(OC)cc2)cc1` [GDAz-15, (S)-4-((2-(3,5-bis(trifluoromethyl)phenyl)-4,5-bis(4-methoxyphenyl)-1H-imidazol-1-yl)methyl)-N-(2-(2-(2-(2-(4-(4-chlorophenyl)-2,3,9-trimethyl-6H-thieno[3,2-f][1,2,4]triazolo[4,3-a][1,4]diazepin-6-yl)acetamido)ethoxy)ethoxy)ethyl)benzamide], the BRD4 degradation entry is “nearly thorough BRD4 degradation” at BRD4 (0.5 µM) and “effectively trigger BRD4 degradation” at BRD4.
On to `COc1c(C)cnc(Cn2cnc3c(NCCC4CCN(C(=O)Cn5cc(COc6ccc(N(C(=O)CCl)C(C(=O)NCCc7ccccc7)c7cccs7)cc6Cl)nn5)CC4)nc(N)nc32)c1C` (stereo not drawn) [GDCNF-11], for which the concentration for half-maximal inhibition (IC50) in the data set with HT1080 cells [3] (read-out: IC50 (antiproliferative activity)) was 790 nM. Also, the Ferroptosis selectivity index result in the data set with HT1080 cells [3] is on record as “about 45 fold”. Also, the “Onset of GPX4 protein degradation” value on GPX4 [4] was “initiating GPX4 protein degradation after 12 h”. Besides, on GPX4 [5], the “GPX4 degradation in 786-O cells” value is given as “induced any degradation effect”.
